# From patent US20230158057A1, “COMPOSITIONS AND METHODS FOR THE TREATMENT OF PAIN” (Duke University, priority 2020, published 2023)
# Entries after “also recorded” stand apart in the source; their conditions may differ.
# Columns and labels:
# [1] = test system: mice with intrafemoral Lewis lung carcinoma (LLC); assay: LLC bone cancer pain model, systemic (i.p.) treatment, behavior tests and body weight; assay type: in vivo, mouse
# Procedure: Bone cancer pain model. The murine cell lines LLC1, LL/2-Luc2 or E0771 were lightly digested using 0.05% trypsin, followed by centrifugation to remove poorly digested cell clusters. Cells were then resuspended in PBS at a concentration of 1×10^8 cells/ml. The inoculation was performed as previously described (Wang, K. et al. “PD-1 blockade inhibits osteoclast formation and murine bone cancer pain.” The Journal of clinical investigation, (2020); Wang, Z. et al. “Anti-PD-1 treatment impairs opioid antinociception in rodents and nonhuman primates.” Sci Transl Med 12 (2020)). Briefly, mice were anesthetized with 4% isoflurane and the left leg was shaved and the skin disinfected with 10% povidone-iodine and 75% ethanol. A superficial incision (0.5-1 cm) was made near the knee joint, exposing the patellar ligament. […] The syringe contents were slowly injected into the femoral cavity over a 2-minute interval. To prevent further leakage of tumor cells outside of the bone cavity, the outer injection site was sealed with silicone adhesive (Kwik-Sil, World Precision Instruments, US). Animals with surgery related movement dysfunction or with outside bone tumor injection were excluded from the study. Drug treatment. […] All other reagents were dissolved in sterile saline or PBS. For experiments utilizing rabbit anti-IFN-α or -β neutralizing antibodies, a polyclonal rabbit IgG antibody served as the control. […] Behavior tests. All the behavioral tests were conducted in a blinded manner and performed during between the hours of 9:00-16:00. Animals were habituated in a light and humidity controlled testing environment for at least 2 days prior to baseline testing. For Von Frey testing, mice were confined to individual 5×5 cm boxes placed on an elevated wire grid. A blinded experimenter stimulated their hindpaws using a series of von Frey filaments with logarithmically increasing stiffness (0.02-2.56 g, Stoelting). Each filament was applied perpendicularly to the central plantar surface. The 50% paw withdrawal threshold was determined using Dixon's up-down method.
# tumor-bearing femora = assay: Bone fractures of tumor-bearing femora on d17 after LLC inoculation; assay type: in vivo, mouse; conditions: vehicle 87.5%
# Procedure: Development and progression of cancer-induced osteolytic bone destruction frequently leads to bone fracture, which is an important component of SREs in patients with bone metastasis and is associated with decreased overall survival. On d17 after LLC inoculation, mice were euthanized and the tumor bearing femora were collected and the distal tumor-bearing femur where bone destruction occurs was analyzed.
# mice with CIPN or BCP = assay: Conditioned place preference (CPP) assay in chronic pain (CIPN and BCP) models; assay type: in vivo, mouse; conditions: mice with neuropathic pain (CIPN), i.t. 35 nmol
# Procedure: (§1) All mice underwent 3 d of preconditioning habituation in a temperature- and humidity-controlled room under low-light conditions between 08:00-16:00 in a two compartment CPP chamber (Med Associates Inc.). The two compartments differed by both visual and tactile cues. On the 4th day, animal behavior was video-recorded using a webcam connected to a laptop computer, and animal movement was automatically tracked for 15 minutes using the ANY-Maze software (Stoelting). […] On the conditioning day(s) (day 5 for single trial; day 5-7 for repeated trials), two pairing sessions were performed, with vehicle pairing in the AM session and drug treatment (e.g., vehicle or drug) in the PM session, separated by 4 h. In the AM session, mice always received vehicle (10 μl saline, delivered via i.t. injection under isoflurane anesthesia) and were immediately placed in their preferred CPP chamber for 2 h. […] 24 h after the completion of the pairing experiments, mice were placed in the CPP test box with access to both chambers and behavior was recorded for 15 minutes and analyzed using the ANY-Maze software for chamber preference. CPP score was calculated as the inverse of the time spent in the preferred chamber according to: [post-preference (sec)—pre-preference (sec)]. Vehicle served as a negative control for these experiments, while morphine (three trials/naïve mice) or clonidine (single trial/ongoing pain) served as positive controls.
# naïve mice [2] = assay: Von Frey testing of mechanical thresholds in naïve mice (WT and knockout); assay type: in vivo, mouse; conditions: for mechanical sensory thresholds (von Frey): i.t. injection
# Procedure: (§2) Reflexive-based sensory testing in mice: All behavioral testing in mice was performed in a specialized humidity- and light-controlled mouse behavior facility maintained at 21-24° C., with testing conducted between the hours of 8:00-16:00. Mice were habituated to the testing environment for at least 2 days prior to baseline testing. All tests were performed by an experimenter who was blinded to experimental conditions, including genotypes and drug treatment. For multi-day experiments using STING agonists, mice were tested in the same room at approximately the same time each day. To measure mechanical sensitivity, mice were confined to individual chambers with non-transparent borders on an elevated mesh rack, preventing mice from visualizing or interacting with one another during the testing period. Mouse hindpaws were stimulated with a series of von Frey filaments with logarithmically increasing stiffness (0.02-2.56 g, Stoelting), which was applied perpendicularly to the central plantar surface. We determined the 50% paw withdrawal threshold using the up-down method. […] To test cold sensitivity, mice were again placed on an elevated metal mesh floor in isolated chambers, and a ˜20 μl acetone drop was applied to the central plantar surface of the mouse hindpaw using a pipette.
# For the experiments utilizing i.t. 2′3′-cGAMP and 3′3′-cGAMP complexed with Lipofectamine 2000 (ThermoFisher, 11668), 10 μg 2′3′-cGAMP or 3′3′-cGAMP was incubated at room temperature for 30 minutes in sterile PBS with 3 μl Lipofectamine 2000. In this case, the vehicle control was 3 μl Lipofectamine 2000 in PBS, as in a previous study which used this approach. […] For experiments utilizing rabbit anti-IFN-α or -β neutralizing antibodies, a polyclonal rabbit IgG antibody served as the control. Antibodies were utilized in vivo at 300 ng/mouse or in vitro at 300 ng/ml. Paclitaxel was administered via repeated i.p. injections every other day for 4 days at a dose of 2 mg/kg. For the whole mount DRG recordings, young mice (4-6 weeks) were administered a single 6 mg/kg dose one week prior to the experiment. All intrathecal injections were performed under brief anesthesia with 2-2.5% isoflurane. Drugs administered by intrathecal injection were preceded by shaving a small area on the back corresponding to the injection site, followed by spinal puncture using a 30-gauge needle between the L5-L6 levels to deliver a maximum of 5-10 μl into the cerebrospinal fluid. Successful intrathecal injection was always confirmed by a brisk tail-flick upon delivery. For the experiments involving intraplantar (i.pl.) injection, IFN-α was dissolved in sterile saline and administered at the concentrations indicated in the figures in a total volume of 20 μl, administered under 2-2.5% isoflurane anesthesia to minimize animal stress. For these experiments, vehicle (saline) or IFN-α were slowly and carefully expressed into the left dorsal hindpaw of anesthetized mice and allowed to perfuse the tissue for ˜20 seconds prior to removal of the needle. […] Mechanical sensory testing was done anteriorly and care was taken to avoid Von Frey filament stimulation of the injection site.
# [3] = test system: Ifnar1+/+ and Ifnar1−/− mice; assay type: in vivo, mouse; conditions: i.t. IFN-α
# Procedure: as §2, with “pipette. […]” for “pipette.”
# naïve mice [4] = assay: Hot plate test after resiniferatoxin ablation of TRPV1+ nociceptors; assay type: in vivo, mouse
# naïve mice [5] = assay: Naloxone reversal of antinociception; assay type: in vivo, mouse; conditions: naloxone 10 mg/kg i.p.; morphine 2 nmol i.t., DMXAA or ADU-S100 35 nmol i.t.
# Procedure: Following naloxone delivery, mice were tested within 15 minutes. For the experiments testing whether mice developed tolerance to the effects of STING agonists, vehicle or DMXAA (35 nmol) were administered via i.t. injection. Naïve mice received five single injections at D0, D3, D6, D9, and D12, with testing each day 4 h after injection. SNI mice received injections on two consecutive days beginning on D7 (D7 and D8) and every 48 h afterwards following the conclusion of sensory testing (D10, D12, D14, D16, and D18). Spinal cords (L4-L5) were collected for analysis of glial cell activation at D21 following SNI.
# [6] = test system: rhesus macaques (Macaca mulatta); conditions: comparison value; cited from earlier work
# naïve mice [7] = assay: Conditioned place preference (CPP) assay in naïve mice; conditions: i.t., morphine 2 nmol, DMXAA or ADU-S100 35 nmol
# Procedure: as §1
# [8] = Solubility noted at drug preparation; assay type: physicochemical; conditions: diluted in PBS containing 5% DMSO and 0.0625% Tween-20
# Procedure: For the experiments utilizing i.t. 2′3′-cGAMP and 3′3′-cGAMP complexed with Lipofectamine 2000 (ThermoFisher, 11668), 10 μg 2′3′-cGAMP or 3′3′-cGAMP was incubated at room temperature for 30 minutes in sterile PBS with 3 μl Lipofectamine 2000. In this case, the vehicle control was 3 μl Lipofectamine 2000 in PBS, as in a previous study which used this approach. […] For experiments utilizing rabbit anti-IFN-α or -β neutralizing antibodies, a polyclonal rabbit IgG antibody served as the control. Antibodies were utilized in vivo at 300 ng/mouse or in vitro at 300 ng/ml. Paclitaxel was administered via repeated i.p. injections every other day for 4 days at a dose of 2 mg/kg. For the whole mount DRG recordings, young mice (4-6 weeks) were administered a single 6 mg/kg dose one week prior to the experiment. All intrathecal injections were performed under brief anesthesia with 2-2.5% isoflurane. Drugs administered by intrathecal injection were preceded by shaving a small area on the back corresponding to the injection site, followed by spinal puncture using a 30-gauge needle between the L5-L6 levels to deliver a maximum of 5-10 μl into the cerebrospinal fluid. Successful intrathecal injection was always confirmed by a brisk tail-flick upon delivery. […]
compound,measurement,setting,value
"O=P(O)(O)C(O)(Cn1ccnc1)P(=O)(O)O [ZA, Zoledronic acid]",body weight,"[1]; LLC model, twice i.p.",no effect on overall body weight
same,mice with distal bone fractures,tumor-bearing femora,25%
Clc1cccc(Cl)c1N=C1NCCN1 [clonidine],"conditioned place preference, single pairing",mice with CIPN or BCP,robust CPP
"Nc1nc2c(ncn2[C@@H]2O[C@@H]3COP(=O)(O)O[C@H]4[C@@H](O)[C@H](n5cnc6c(N)ncnc65)O[C@@H]4COP(=O)(O)O[C@@H]2[C@@H]3O)c(=O)[nH]1 [2′3′-cGAMP, 2′3′ cyclic guanosine monophosphate—adenosine monophosphate]",mechanical sensory thresholds (von Frey),naïve mice [2]; naïve mice,induced dose-dependent antinociception; also recorded: elevated mechanical thresholds
IFN-α,mechanical hypersensitivity induced by intraplantar IFN-α,[3],could block the mechanical hypersensitivity induced by intraplantar IFN-α
same,antinociception in WT vs Ifnar1-gKO/cKO mice,naïve mice [2]; i.t.,induced transient antinociception in WT mice which was abolished in Ifnar1-gKO/cKO mice
same,mechanical hypersensitivity of STINGgt/gt mice,naïve mice [2]; i.t.,could transiently rescue mechanical hypersensitivity
same,paw withdrawal thresholds after i.t. recombinant interferon,"naïve mice [2]; naïve mice, i.t.",increased paw withdrawal thresholds
same,paw withdrawal thresholds after i.t. recombinant interferon,"naïve mice [2]; naïve mice, i.t., listed as IFN-a","induced transient, dose-dependent antinociception"
"IFN-β: recombinant mouse IFN-β produced in mammalian cells (PBL Assay Science, 12410-1)",antinociception in WT vs Ifnar1-gKO/cKO mice,naïve mice [2]; i.t.,induced transient antinociception in WT mice which was abolished in Ifnar1-gKO/cKO mice
same,mechanical hypersensitivity of STINGgt/gt mice,naïve mice [2]; i.t.,could transiently rescue mechanical hypersensitivity
same,paw withdrawal thresholds after i.t. recombinant interferon,"naïve mice [2]; naïve mice, i.t.","induced transient, dose-dependent antinociception; also recorded: increased paw withdrawal thresholds"
C=C(C)[C@]12C[C@@H](C)[C@@]34O[C@](Cc5ccccc5)(O[C@@H]1[C@@H]3C=C(COC(=O)Cc1ccc(O)c(OC)c1)C[C@]1(O)C(=O)C(C)=C[C@@H]41)O2 [RTX],heat sensitivity in the hot plate test,naïve mice [4],heat insensitivity
CN1CC[C@]23c4c5ccc(O)c4O[C@H]2[C@@H](O)C=C[C@H]3[C@H]1C5 [morphine],effect of naloxone on the antinociception of the substance,naïve mice [5],reversed
same,intrathecal dose producing analgesia in NHPs,[6],100 nmol
same,"conditioned place preference, repeated pairing",naïve mice [7],induces CPP
Cn1cc(Nc2nccc(N3C[C@H]4CC[C@@H](C3)N4C(=O)[C@@H]3CC3(F)F)n2)cn1 [PF-06700841],mechanical sensitivity after i.t. inhibitor or neutralizing antibody,"naïve mice [2]; naïve mice, i.t.","induced transient, dose-dependent mechanical allodynia"
same,effect of pretreatment on IFN-β-induced antinociception,"naïve mice [2]; naïve mice, i.t., 1 μg",abolished IFN-β-induced antinociception
Nc1nc2c(ncn2[C@@H]2O[C@@H]3COP(=O)(O)O[C@H]4[C@@H](O)[C@H](n5cnc6c(N)ncnc65)O[C@@H]4COP(=O)(O)O[C@H]3[C@H]2O)c(=O)[nH]1 [3′3′-cGAMP],acute effect on bone cancer pain,"[1]; d11, 4 h after single i.p. injection",could attenuate cold allodynia or/and mechanical allodynia
same,mechanical sensory thresholds (von Frey),naïve mice [2]; naïve mice,induced dose-dependent antinociception; also recorded: elevated mechanical thresholds
poly(I:C),effect on mechanical thresholds in knockout mice,"naïve mice [2]; i.t. 1 μg, knockout genotypes",abolished in Ifnar1fx/fx; Nav1.8-Cre and RIG-I−/− mice
same,mechanical thresholds after i.t. dsDNA or dsRNA analog,"naïve mice [2]; i.t. 1 μg, responsive genotypes","elevated mechanical thresholds similarly in Ifnar1fx/fx (WT), STINGgt/gt, and cGAS−/− mice"
O=C(Nc1ccc(I)cc1)c1ccc([N+](=O)[O-])o1 [C-176],mechanical sensitivity after i.t. inhibitor or neutralizing antibody,"naïve mice [2]; naïve mice, i.t.",transient dose-dependent hypersensitivity
same,solubility,[8],poor solubility
CCc1ccc(NC(=O)Nc2c[nH]c3ccccc23)cc1 [H-151],mechanical sensitivity after i.t. inhibitor or neutralizing antibody,"naïve mice [2]; naïve mice, i.t.",transient dose-dependent hypersensitivity
same,solubility,[8],poor solubility
